In publication PMC9326877 (Journal of Food and Drug Analysis, 2018) one finds efflux ratio data, which are given here for 1 molecule.

The data set addresses P-glycoprotein (P-gp) (Sus scrofa, UniProt K7GMM7). The format is in vitro ADME, pig (Sus scrofa domesticus). The note with it: Landrace, pig.

Sequence of P-glycoprotein (P-gp) (K7GMM7 1-1248): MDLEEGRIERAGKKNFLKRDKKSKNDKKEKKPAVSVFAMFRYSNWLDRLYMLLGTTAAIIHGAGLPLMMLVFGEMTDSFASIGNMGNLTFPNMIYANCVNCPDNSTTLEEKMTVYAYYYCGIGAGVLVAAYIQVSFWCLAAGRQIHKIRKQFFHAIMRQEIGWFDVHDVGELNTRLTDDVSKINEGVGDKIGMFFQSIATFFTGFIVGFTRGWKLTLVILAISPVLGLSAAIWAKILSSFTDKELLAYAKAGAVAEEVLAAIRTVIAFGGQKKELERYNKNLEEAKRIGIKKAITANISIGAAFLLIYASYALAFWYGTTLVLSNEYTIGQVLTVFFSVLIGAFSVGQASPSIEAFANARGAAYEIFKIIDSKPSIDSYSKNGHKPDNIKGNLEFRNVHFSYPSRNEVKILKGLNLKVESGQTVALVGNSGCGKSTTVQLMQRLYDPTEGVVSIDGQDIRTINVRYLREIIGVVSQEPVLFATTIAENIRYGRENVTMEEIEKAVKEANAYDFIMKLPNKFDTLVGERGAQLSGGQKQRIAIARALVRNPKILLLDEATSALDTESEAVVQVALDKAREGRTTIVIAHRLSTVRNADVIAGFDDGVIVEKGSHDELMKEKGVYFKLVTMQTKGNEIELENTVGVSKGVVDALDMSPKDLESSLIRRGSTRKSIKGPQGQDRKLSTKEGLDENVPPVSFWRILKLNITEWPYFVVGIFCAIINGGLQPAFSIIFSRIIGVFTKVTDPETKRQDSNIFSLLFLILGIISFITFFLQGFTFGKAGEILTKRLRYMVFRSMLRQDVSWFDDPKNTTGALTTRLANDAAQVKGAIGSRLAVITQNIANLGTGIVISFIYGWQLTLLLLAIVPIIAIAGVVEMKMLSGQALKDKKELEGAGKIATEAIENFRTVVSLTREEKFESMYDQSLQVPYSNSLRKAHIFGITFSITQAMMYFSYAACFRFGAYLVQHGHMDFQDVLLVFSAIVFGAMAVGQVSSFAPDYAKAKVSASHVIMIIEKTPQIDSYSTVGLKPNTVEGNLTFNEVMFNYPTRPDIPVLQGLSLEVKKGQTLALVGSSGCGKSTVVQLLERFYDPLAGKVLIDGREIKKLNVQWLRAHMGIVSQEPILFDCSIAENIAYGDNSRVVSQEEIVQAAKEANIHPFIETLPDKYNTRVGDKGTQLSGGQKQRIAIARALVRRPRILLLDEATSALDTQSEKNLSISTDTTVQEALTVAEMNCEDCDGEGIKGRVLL

As usually defined, the efflux ratio is the permeability from basolateral to apical divided by that in the opposite direction, in the common usage. `COC(=O)c1ccccc1-c1c2ccc(=N)cc-2oc2cc(N)ccc12` [R123, Rhodamine 123]: the efflux ratio at 120 min, 5 μM was determined as 2.2.
